The values that follow come from patent US20040082550A1, “Tropolone derivative” (priority 2000, published 2004).

The test system of this experiment is promyelocyte leukemia cell strain HL-60. As to the kind of experiment: Test for induction of cell differentiation in HL-60 cells (NBT reduction ability). It is filed as cell-based. To be noted: for Ratio of cells for which differentiation was induced by each compound alone (%): calculated from NBT reduction ability; for Ratio of cells for which differentiation was induced by each compound in combination with 1 × 10^−7 M of HX630 (%): in combination with 1×10^−7 M HX630 (retinoid synergist). The protocol:
For each of the compounds of the examples, action for inducing cell differentiation was examined for each alone and in combination with 1×10^−7 M of HX630. According to the methods described in Japanese Patent Unexamined Publication (KOKAI) No. (Sho)61-76440/1986, differentiation of the cells of promyelocyte leukemia cell strain HL-60 into granulocytic series cells was determined based on morphological change and measurement of ability to reduce nitro blue tetrazolium (NBT). The ratios (%) of differentiated cells shown in the following table are those calculated from NBT reduction ability. HX630 is a retinoid synergist that enhances actions of retinoids, and the concentrations of −8, −7 and −6 mean that each compound was added at concentrations of 1×10^−8 M, 1×10^−7 M and 1×10^−6 M, respectively.

The mark [1] stands for this setting: compound concentration -6 (1×10^−6 M).
Where [2] appears, read: compound concentration -7 (1×10^−7 M).
Where [3] appears, read: compound concentration -8 (1×10^−8 M).

Structures are written as SMILES.

`CC1(C)CCC(C)(C)c2cc(Nc3ccc(O)c(=O)cc3)ccc21` [Tp10]: the “Ratio of cells for which differentiation was induced by each compound alone (%)” value by setting is: (concentration -6 (1×10^−6 M)) 3.3%; (concentration -7 (1×10^−7 M)) 2.9%; (concentration -8 (1×10^−8 M)) 6.8%. Moreover, the “Ratio of cells for which differentiation was induced by each compound in combination with 1 × 10^−7 M of HX630 (%)” value is recorded as 5.6% under setting [1], 2.9% under setting [2] and 3% under setting [3].

For the compound `Cc1cc2c(cc1Nc1ccc(O)c(=O)cc1)C(C)(C)CCC2(C)C` [Tp20], the “Ratio of cells for which differentiation was induced by each compound alone (%)” value runs as follows: (concentration -6 (1×10^−6 M)) 2.7%; (concentration -7 (1×10^−7 M)) 1.8%; (concentration -8 (1×10^−8 M)) 2.1%. Moreover, the “Ratio of cells for which differentiation was induced by each compound in combination with 1 × 10^−7 M of HX630 (%)” value by setting is: under setting [1], 2.4%; under setting [2], 3.7%; under setting [3], 4.6%.

Regarding `Cc1cc2c(cc1N(C)c1ccc(O)c(=O)cc1)C(C)(C)CCC2(C)C` [Tp22], the “Ratio of cells for which differentiation was induced by each compound alone (%)” value by setting is: (concentration -6 (1×10^−6 M)) 18%; (concentration -7 (1×10^−7 M)) 2.4%; (concentration -8 (1×10^−8 M)) 2.8%. For the same compound, the “Ratio of cells for which differentiation was induced by each compound in combination with 1 × 10^−7 M of HX630 (%)” value runs as follows: under setting [1], 78%; under setting [2], 3.3%; under setting [3], 2.1%.

For the compound `CC1(C)CCC(C)(C)c2cc(NC(=O)Nc3ccc(O)c(=O)cc3)ccc21` [Tp30], the “Ratio of cells for which differentiation was induced by each compound alone (%)” value (concentration -6 (1×10^−6 M)) is listed as 1.2%, the “Ratio of cells for which differentiation was induced by each compound alone (%)” value (concentration -7 (1×10^−7 M)) is reported as 1.5% and the “Ratio of cells for which differentiation was induced by each compound alone (%)” value (concentration -8 (1×10^−8 M)) is 1.3%. Further, the “Ratio of cells for which differentiation was induced by each compound in combination with 1 × 10^−7 M of HX630 (%)” value under setting [1] is given as 20%, the “Ratio of cells for which differentiation was induced by each compound in combination with 1 × 10^−7 M of HX630 (%)” value under setting [2] was determined as 2.3% and the “Ratio of cells for which differentiation was induced by each compound in combination with 1 × 10^−7 M of HX630 (%)” value under setting [3] is reported as 2.5%.

For `CC1(C)CCC(C)(C)c2cc(S(=O)(=O)Nc3ccc(O)c(=O)cc3)ccc21` [Tp40], the “Ratio of cells for which differentiation was induced by each compound alone (%)” value (concentration -6 (1×10^−6 M)) is on record as 2.3%, the “Ratio of cells for which differentiation was induced by each compound alone (%)” value (concentration -7 (1×10^−7 M)) is on record as 0.9% and the “Ratio of cells for which differentiation was induced by each compound alone (%)” value (concentration -8 (1×10^−8 M)) is 1.3%. Besides, the “Ratio of cells for which differentiation was induced by each compound in combination with 1 × 10^−7 M of HX630 (%)” value came out at 2% under setting [1], 2.5% under setting [2] and 1.8% under setting [3].

With `CC(C)(C)c1cc(C(=O)Nc2ccc(O)c(=O)cc2)cc(C(C)(C)C)c1` [Tp50], the “Ratio of cells for which differentiation was induced by each compound alone (%)” value is, setting by setting: (concentration -6 (1×10^−6 M)) 5.1%; (concentration -7 (1×10^−7 M)) 2.8%; (concentration -8 (1×10^−8 M)) 1.6%.

For the compound `O=C(Nc1ccc(O)c(=O)cc1)c1cc(C(F)(F)F)cc(C(F)(F)F)c1` [Tp60], the “Ratio of cells for which differentiation was induced by each compound alone (%)” value reads like this: (concentration -6 (1×10^−6 M)) 2.1%; (concentration -7 (1×10^−7 M)) 1.3%; (concentration -8 (1×10^−8 M)) 0.8%. Moreover, the “Ratio of cells for which differentiation was induced by each compound in combination with 1 × 10^−7 M of HX630 (%)” value is reported as 37.8% under setting [1], 21.2% under setting [2] and 2.2% under setting [3].

Regarding `CC1(C)CCC(C)(C)c2cc(C(=O)Nc3ccc(O)c(=O)cc3)ccc21` [Tp80], the “Ratio of cells for which differentiation was induced by each compound alone (%)” value (concentration -6 (1×10^−6 M)) is 21%, the “Ratio of cells for which differentiation was induced by each compound alone (%)” value (concentration -7 (1×10^−7 M)) is on record as 26% and the “Ratio of cells for which differentiation was induced by each compound alone (%)” value (concentration -8 (1×10^−8 M)) was 7%. Further, the “Ratio of cells for which differentiation was induced by each compound in combination with 1 × 10^−7 M of HX630 (%)” value by setting is: under setting [1], 79%; under setting [2], 85%; under setting [3], 82%.

In the case of `CN(C(=O)c1ccc2c(c1)C(C)(C)CCC2(C)C)c1ccc(O)c(=O)cc1` [Tp82], the “Ratio of cells for which differentiation was induced by each compound alone (%)” value (concentration -6 (1×10^−6 M)) is 1.4%, the “Ratio of cells for which differentiation was induced by each compound alone (%)” value (concentration -7 (1×10^−7 M)) is on record as 1.2% and the “Ratio of cells for which differentiation was induced by each compound alone (%)” value (concentration -8 (1×10^−8 M)) is reported as 0.5%. The “Ratio of cells for which differentiation was induced by each compound in combination with 1 × 10^−7 M of HX630 (%)” value under setting [1] is given as 42%, the “Ratio of cells for which differentiation was induced by each compound in combination with 1 × 10^−7 M of HX630 (%)” value under setting [2] is 7% and the “Ratio of cells for which differentiation was induced by each compound in combination with 1 × 10^−7 M of HX630 (%)” value under setting [3] worked out at 1.9%.

`Cc1cc2c(cc1C(=O)Nc1ccc(O)c(=O)cc1)C(C)(C)CCC2(C)C` [Tp84]: the “Ratio of cells for which differentiation was induced by each compound alone (%)” value runs as follows: (concentration -6 (1×10^−6 M)) 26%; (concentration -7 (1×10^−7 M)) 5%; (concentration -8 (1×10^−8 M)) 0.7%. Further, the “Ratio of cells for which differentiation was induced by each compound in combination with 1 × 10^−7 M of HX630 (%)” value by setting is: under setting [1], 90%; under setting [2], 89%; under setting [3], 15%.

On to `CC1(C)CCC(C)(C)c2cc(C=CC(=O)Nc3ccc(O)c(=O)cc3)ccc21` [Tp90], for which the “Ratio of cells for which differentiation was induced by each compound alone (%)” value (concentration -6 (1×10^−6 M)) is 67%, the “Ratio of cells for which differentiation was induced by each compound alone (%)” value (concentration -7 (1×10^−7 M)) is listed as 0.9% and the “Ratio of cells for which differentiation was induced by each compound alone (%)” value (concentration -8 (1×10^−8 M)) is recorded as 0.7%. Further, the “Ratio of cells for which differentiation was induced by each compound in combination with 1 × 10^−7 M of HX630 (%)” value came to 43% under setting [1], 2.1% under setting [2] and 1.5% under setting [3].

Regarding `CC1(C)CCC(C)(C)c2cc(C=CC(=O)Nc3ccc(Cl)c(=O)cc3)ccc21` [Tp93], the “Ratio of cells for which differentiation was induced by each compound alone (%)” value was 9% (concentration -6 (1×10^−6 M)), 0.8% (concentration -7 (1×10^−7 M)) and 0.6% (concentration -8 (1×10^−8 M)). Further, the “Ratio of cells for which differentiation was induced by each compound in combination with 1 × 10^−7 M of HX630 (%)” value is 40% under setting [1], 0.8% under setting [2] and 3.6% under setting [3].

In the case of `CC1(C)CCC(C)(C)c2cc(C=CC=CC(=O)Nc3ccc(O)c(=O)cc3)ccc21` [Tp95], the “Ratio of cells for which differentiation was induced by each compound alone (%)” value is listed as 0.3% (concentration -6 (1×10^−6 M)), 0.5% (concentration -7 (1×10^−7 M)) and 0.5% (concentration -8 (1×10^−8 M)). For the same compound, the “Ratio of cells for which differentiation was induced by each compound in combination with 1 × 10^−7 M of HX630 (%)” value is 1.7% under setting [1], 0.5% under setting [2] and 0.8% under setting [3].
